Legend:
[1] = test system: SKOV3 cells; experiment: Serum starved proliferation assay on the ovarian carcinoma SKOV3 cells (C3); type: cell-based; conditions: EGF stimulated (100 ng/ml, 72 hours, serum free) or 72 hours with compounds, MTT cell viability assay; for IC50: Homo sapiens, SK-OV-3, 72 h, read-out: SKOV3 cell (C3): pIC50 (converted)
Procedure, shortened: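 SKOV3 cells grown 24 h in 10% FCS, then treated with compound under serum-free conditions (37 °C, 5% CO2) and stimulated 72 h with EGF at 100 ng/ml final; read-out by MTT viability. Alternative format: compound for 72 h after the same 24 h FCS step, also by MTT.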

[2] = biological target: EGFR (Homo sapiens, UniProt P00533); experiment: In vitro inhibition of EGFR, Flash Plate or glass-fiber filter technology (C2); type: biochemical; parameters: 0.5 μg EGFR-kinase domain/well; conditions: EGFR-kinase domain, 5.0 μM unlabeled ATP, read-out: Kinase activity.(C2): pIC50 (converted)
Procedure, shortened: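 EGFR kinase domain (0.5 μg/well) phosphorylated poly(GT) with 5.0 μM ATP plus AT^33P, dose response 1·10^−6 to 1·10^−10 M. Flash Plate: biotin-poly(GT), Tris pH 8.0, 30° C, 60 min, scintillation counting. Filter: Tris pH 7.5 with MnCl2, 25° C, 10 min, 33P counted on glass-fiber filter by phosphorimaging.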

EGFR, sequence (P00533 712-979 limits assumed): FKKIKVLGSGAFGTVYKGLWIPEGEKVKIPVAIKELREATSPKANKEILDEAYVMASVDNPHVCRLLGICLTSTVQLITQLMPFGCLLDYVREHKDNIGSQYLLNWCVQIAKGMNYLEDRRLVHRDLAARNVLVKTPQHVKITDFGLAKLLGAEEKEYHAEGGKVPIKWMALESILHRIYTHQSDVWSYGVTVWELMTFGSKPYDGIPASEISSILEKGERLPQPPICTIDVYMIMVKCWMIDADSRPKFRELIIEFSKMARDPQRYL

| SMILES | IC50 [1] | IC50 [2] | melting point | SKOV3 cell (C3): pIC50 [1] |
| --- | --- | --- | --- | --- |
| COc1cc2ncnc3c2cc1OCCNC(=O)C(C)(C)NC(=O)Cc1ccc(Cl)cc1N3 [Compound 65, 4,6-ethanediylidene-8H-pyrimido[4,5-b][6,1,9,12]benzoxatriazacyclohexadecine-11,14-dione, 18-chloro-9,10,12,13,15,20-hexahydro-21-methoxy-12,12-dimethyl-] | 20 nM | 12.6 nM | 285 °C |  |
| COc1cc2ncnc3c2cc1OCCNC(=O)C(C(C)C)NC(=O)Cc1ccc(Cl)cc1N3 (stereo not drawn) [Compound 66, 4,6-ethanediylidene-8H-pyrimido[4,5-b][6,1,9,12]benzoxatriazacyclohexadecine-11,14-dione, 18-chloro-9,10,12,13,15,20-hexahydro-21-methoxy-12-(1-methylethyl)-] | 10 nM | 79.4 nM | 335 °C |  |
| COc1cc2ncnc3c2cc1OCCCNC(=O)C1CCC(=O)N1Cc1ccc(Cl)cc1N3 (stereo not drawn) [Compound 76, 4,6-etheno-8H-pyrimido[4,5-b]pyrrolo[2,1-l][6,1,10,13]benzoxatriazacyclohexadecine-12,15(14H)-dione, 20-chloro-9,10,11,12a,13,17,22-heptahydro-23-methoxy-] | 200 nM | 25.1 nM | 350.5 to 352.5 °C |  |
| COc1cc2ncnc3c2cc1OCCNC(=O)C1CCCN1Cc1cc(F)c(Cl)cc1N3 (stereo not drawn) [Compound 78, 4,6-ethanediylidenepyrimido[4,5-b]pyrrolo[2,1-k][6,1,9,12]benzoxatriazacyclopentadecin-11(8H)-one, 19-chloro-18-fluoro-9,10,11a,12,13,14,16,21-octahydro-22-methoxy-] | 316 nM | 31.6 nM | 261.4 to 264 °C |  |
| COc1cc2ncnc3c2cc1OCCCNC(=O)CN(C)Cc1cc(F)c(Cl)cc1N3 [Compound 80, 4,6-ethanediylidene-12H-pyrimido[4,5-b][6,1,10,13]benzoxatriazacyclohexadecin-12-one, 18-chloro-17-fluoro-8,9,10,11,13,14,15,20-octahydro-21-methoxy-14-methyl-] | 63.1 nM | 20 nM | 260.4 to 261.1 °C |  |
| COc1cc2ncnc3c2cc1OCCNC(=O)CNCc1cc(F)c(Cl)cc1N3 [Compound 81, 4,6-ethanediylidenepyrimido[4,5-b][6,1,9,12]benzoxatriazacyclopentadecin-11(8H)-one, 17-chloro-16-fluoro-9,10,12,13,14,19-hexahydro-20-methoxy-] | 251 nM | 251 nM | 304.2 to 304.4 °C |  |
| COc1cc2ncnc3c2cc1OCCCNC(=O)CNCc1cc(F)c(Cl)cc1N3 [Compound 82, 4,6-ethanediylidene-12H-pyrimido[4,5-b][6,1,10,13]benzoxatriazacyclohexadecin-12-one, 18-chloro-17-fluoro-8,9,10,11,13,14,15,20-octahydro-21-methoxy-] | 79.4 nM | 20 nM | 311 to 311.9 °C |  |
| COc1cc2ncnc3c2cc1OCCNC(=O)C1CCN(CC1)Cc1ccc(Cl)cc1N3 [Compound 87, 8H-4,6-ethanediylidene-12,15-ethanopyrimido[4,5-b][6,1,9,14]benzoxatriazacycloheptadecin-11(12H)-one, 19-chloro-9,10,13,14,16,21-hexahydro-24-methoxy-] |  |  | 246.6 to 248.2 °C |  |
| COc1cc2ncnc3c2cc1OCCNC(=O)C(CO)NCc1ccc(Cl)cc1N3 (stereo not drawn) [Compound 91, 4,6-ethanediylidenepyrimido[4,5-b][6,1,9,12]benzoxatriazacyclopentadecin-11(8H)-one, 17-chloro-9,10,12,13,14,19-hexahydro-12-(hydroxymethyl)-20-methoxy-] |  |  | 276.3 to 277.4 °C |  |
| COc1cc2ncnc3c2cc1OCCCNC(=O)CN1CCN(CC1)Cc1ccc(Cl)cc1N3 [Compound 93, 4,6-ethanediylidene-14,17-ethanopyrimido[4,5-b][6,1,10,13,16]benzoxatetraazacyclononadecin-12(13H)-one, 21-chloro-8,9,10,11,15,16,18,23-octahydro-26-methoxy-] |  |  | 286.8 to 287.6 °C |  |
| COc1cc2ncnc3c2cc1OCCCNC(=O)C1CCCN(Cc2ccc(Cl)cc2N3)C1 (stereo not drawn) [Compound 95, 12H-4,6-ethanediylidene-13,17-methanopyrimido[4,5-b][6,1,10,16]benzoxatriazacyclononadecin-12-one, 21-chloro-8,9,10,11,13,14,15,16,18,23-decahydro-25-methoxy-] |  |  | 240.1 to 242.8 °C |  |

Continued, values first:

| IC50 [1] | IC50 [2] | melting point | SKOV3 cell (C3): pIC50 [1] | SMILES |
| --- | --- | --- | --- | --- |
| 63.1 nM | 50.1 nM | 292 °C |  | COc1cc2ncnc3c2cc1OCCNC(=O)CNC(=O)Cc1ccc(Cl)cc1N3 [Compound 69, 4,6-ethanediylidene-8H-pyrimido[4,5-b][6,1,9,12]benzoxatriazacyclohexadecine-11,14-dione, 18-chloro-9,10,12,13,15,20-hexahydro-21-methoxy-] |
| 3160 nM | 10 nM | 236.4 to 237.3 °C |  | COc1cc2ncnc3c2cc1OCCCNC(=O)CCNCc1ccc(Cl)cc1N3 [Compound 70, 4,6-ethanediylidenepyrimido[4,5-b][6,1,10,14]benzoxatriazacycloheptadecin-12(13H)-one, 19-chloro-8,9,10,11,14,15,16,21-octahydro-22-methoxy-] |
|  | 31.6 nM | 261.2 to 265 °C | 5.5 | COc1cc2ncnc3c2cc1OCCNC(=O)C1CCCN1Cc1ccc(Cl)cc1N3 (stereo not drawn) [Compound 71, 4,6-ethanediylidenepyrimido[4,5-b]pyrrolo[2,1-k][6,1,9,12]benzoxatriazacyclopentadecin-11(8H)-one, 19-chloro-9,10,11a,12,13,14,16,21-octahydro-22-methoxy-] |
| 10000 nM | 158 nM | 288.5 to 290.5 °C |  | COc1cc2ncnc3c2cc1OCCNC(=O)CN(C)Cc1ccc(Cl)cc1N3 [Compound 72, 4,6-ethanediylidenepyrimido[4,5-b][6,1,9,12]benzoxatriazacyclopentadecin-11(8H)-one, 17-chloro-9,10,12,13,14,19-hexahydro-20-methoxy-13-methyl-] |
| 3980 nM | 39.8 nM | 294.2 to 295.2 °C |  | COc1cc2ncnc3c2cc1OCCNC(=O)CNCc1ccc(Cl)cc1N3 [Compound 73, 4,6-ethanediylidenepyrimido[4,5-b][6,1,9,12]benzoxatriazacyclopentadecin-11(8H)-one, 17-chloro-9,10,12,13,14,19-hexahydro-20-methoxy-] |
| 1000 nM | 25.1 nM | 240 to 240.3 °C |  | COc1cc2ncnc3c2cc1OCCCNC(=O)CN(C)Cc1ccc(Cl)cc1N3 [Compound 74, 4,6-ethanediylidene-12H-pyrimido[4,5-b][6,1,10,13]benzoxatriazacyclohexadecin-12-one, 18-chloro-8,9,10,11,13,14,15,20-octahydro-21-methoxy-14-methyl-] |
| 6310 nM | 63.1 nM | 254.4 to 256.5 °C |  | COc1cc2ncnc3c2cc1OCCNC(=O)CCNCc1ccc(Cl)cc1N3 [Compound 75, 4,6-ethanediylidene-8H-pyrimido[4,5-b][6,1,9,13]benzoxatriazacyclohexadecin-11(12H)-one, 18-chloro-9,10,13,14,15,20-hexahydro-21-methoxy-] |
| 10000 nM | 631 nM | 306.3 to 307.4 °C |  | COc1cc2ncnc3c2cc1OCCNC(=O)CN(C)Cc1cc(F)c(Cl)cc1N3 [Compound 79, 4,6-ethanediylidenepyrimido[4,5-b][6,1,9,12]benzoxatriazacyclopentadecin-11(8H)-one, 17-chloro-16-fluoro-9,10,12,13,14,19-hexahydro-20-methoxy-13-methyl-] |
|  | 501 nM | 262 to 262.8 °C | 6.1 | COc1cc2ncnc3c2cc1OCCNC(=O)C1CCCN1Cc1ccc(Cl)cc1N3 (stereo not drawn) [Compound 83, 4,6-ethanediylidenepyrimido[4,5-b]pyrrolo[2,1-k][6,1,9,12]benzoxatriazacyclopentadecin-11(8H)-one, 19-chloro-9,10,11a,12,13,14,16,21-octahydro-22-methoxy-] |
|  |  | 265 °C |  | COc1cc2ncnc3c2cc1OCCNC(=O)C(C)N(C)Cc1ccc(Cl)cc1N3 (stereo not drawn) [Compound 89, 4,6-ethanediylidenepyrimido[4,5-b][6,1,9,12]benzoxatriazacyclopentadecin-11(8H)-one, 17-chloro-9,10,12,13,14,19-hexahydro-20-methoxy-12,13-dimethyl-] |
|  |  | 261.1 to 262 °C |  | CCN1CC(=O)NCCOc2cc3c(ncnc3cc2OC)Nc2cc(Cl)ccc2C1 [Compound 90, 4,6-ethanediylidenepyrimido[4,5-b][6,1,9,12]benzoxatriazacyclopentadecin-11(8H)-one, 17-chloro-13-ethyl-9,10,12,13,14,19-hexahydro-20-methoxy-] |
| 200 nM | 25.1 nM | 304.6 to 304.8 °C |  | COc1cc2ncnc3c2cc1OCCCNC(=O)CNCc1ccc(Cl)cc1N3 [Compound 99, 4,6-ethanediylidene-12H-pyrimido[4,5-b][6,1,10,13]benzoxatriazacyclohexadecin-12-one, 18-chloro-8,9,10,11,13,14,15,20-octahydro-21-methoxy-] |
